Patent US20160345827A1, “TWO-PHOTON MICROSCOPY IMAGING RETINA CELL DAMAGE” (POLGENIX, INC., priority 2014, published 2016)

What was measured:
[1] = test system: retinal explant tissue cultures; assay type: cell-based; settings: 6 h at 37° C, WT retinas
Method: FIGS. 6(A-B) illustrate images and a plot showing retinal degeneration is induced by atRAL in ex vivo retinal cultures. Retinas were removed from the eyecups of 4-wk-old C57BL/6J mice and cultured for 16 h at 37° C. Then retinas were incubated further with/without 30 μM of atRAL in the presence/absence of experimental drugs for 6 h at 37° C. Vehicle (DMSO), retinylamine (Ret-NH2) at 30 μM, or apocynin (Apo) at 300 μM was applied, together with atRAL. (A) Retinal morphology was examined after incubation with atRAL and with and without drugs. […] (B) TUNEL staining was performed with the ApoTag Peroxidase in Situ Apoptosis Detection Kit. Counter nuclear staining was accomplished with methyl green. […] (D) Retinas were removed from eyecups of 4-wk-old C57BL/6J mice and cultured with or without 30 μM of atRAL for 24 h at 37° C. After incubation, retinas were washed twice with PBS and then examined by TPM. Spectra from photoreceptor outer segments are shown (Left) along with representative magnified images (Right). Spectra from retinas cultured with atRAL featured a broad maximum absorption at 600 nm.
(§1) Eyes were enucleated, washed with a penicillin-streptomycin solution (Sigma), and rinsed with Hank's balanced salt solution (HyClone). Prepared mouse eyecups were flattened by creating retinal flaps. Flattened retinas were transferred onto filter paper and the retina was gently peeled off from the RPE/choroid. All these procedures were performed under a surgical microscope. Each retina on filter paper was placed into a well of a 12-well plate filled with 0.5 mL of DMEM (HyClone) with 10% FBS and incubated for 16 h at 37° C. Retinas then were washed twice with 0.5 mL of fresh DMEM containing 10% FBS and finally incubated again with/without 30 μM of atRAL for 6 h at 37° C. A lactate dehydrogenase (LDH) assay was performed to determine cellular death rates with a LDH activity assay kit (BioVision). The percentage of cytotoxicity was calculated as [(a retina with atRAL—a retina without atRAL)/(lysis control—a retina without atRAL)]×100.
The primary cause of acute retinal degeneration after bright light exposure in Abca4^−/−Rdh8^−/− mice is the delayed clearance of atRAL from photoreceptors. […] Thus, to examine whether retinal tissue lacking RPE cells can display degenerative changes similar to those observed in in vivo, we performed ex vivo culture experiments with retinal explants coincubated with atRAL. Neural retinas were dissected from eyes of 4-wk-old WT mice, and incubated with 30 μM of atRAL in the presence of control vehicle, 30 μM of retinylamine or 300 μM of apocynin for 6 h at 37° C. […] Cell death rates were calculated by measuring lactate dehydrogenase released into tissue culture supernatants from dying cells.

[2] = test system: Abca4^−/−Rdh8^−/− (Dko) retinal cultures; assay: ex vivo Dko retinal cultures incubated with atRAL (morphology, LDH); assay type: cell-based; settings: Ret-NH2 30 μM or Apo 300 μM together with 30 μM atRAL, 6 h at 37° C, Dko retinas
Method: FIGS. 11(A-B) illustrate images showing retinal degeneration is induced by atRAL in ex vivo Dko retinal cultures. Retinas were removed from the eyecups of 4-wk-old Abca4^−/−Rdh8^−/− (Dko) mice and cultured for 16 h at 37° C. Retinas were then incubated further with/without 30 μM of atRAL in the presence/absence of experimental drugs for 6 h at 37° C. Vehicle (DMSO), retinylamine (Ret-NH2) at 30 μM, or apocynin (Apo) at 300 μM was applied together with atRAL. (A) Retinal morphology was examined after incubation with atRAL. […] Bars indicate SD (n=3). *P<0.05.
as §1

[3] = test system: RPE of wild type (WT) mice; assay: two-photon imaging of retinosomes in WT mouse RPE; assay type: in vivo; settings: WT mice pre-treated with Ret-NH2, white light 5,000 lux before imaging, laser power reduced by 17%
Method: To enhance the visibility of retinosomes, WT mice without any drug treatment or treated with Ret-NH2 were exposed to 5,000 lux of white light for 5-30 min, 1 to 3 h before imaging.
To assess the capabilities of our system to characterize the RPE and retina we imaged ex vivo eyes of mice with different genetic backgrounds. The brightest RPE images were obtained in Rpe65^−/− mice in response to 730 nm excitation (FIG. 17a). The brightly fluorescent granules correspond to enlarged retinosomes, which are a characteristic feature of the RPE only in Rpe65^−/− mice due to blockade of 11cisretinol synthesis. […] We also imaged and counted the neuronal nuclei in the ganglion cell layer at 0.6 mm eccentricity and found 2,500 nuclei per mm2 (FIG. 17d), which is smaller than previously reported about 7,000 per mm2 of combined ganglion and displaced amacrine cells in stained retina. This difference arises from: a) nuclei are free of fluorophores, and are only visible as dark structures against brighter cell bodies, which can lead to obstruction of the nuclei by axon bundles; b) not all the cell nuclei were at the same imaging depth; and c) the estimates of the area could be off by 40% because they were determined by comparing measurements of optic disk in en face TPM images to histological sections. […]

[4] = after treatment with Ret-NH2; diminished 7 days after treatment; cited from earlier work

For `CC1=C(/C=C/C(C)=C/C=C/C(C)=C/CN)C(C)(C)CCC1` [retinylamine], the “protection of retinal morphology against atRAL-induced damage” value ([1]; Ret-NH2 30 μM or apocynin 300 μM together with 30 μM atRAL) was “protected the ONL and INL”, the “prevention of atRAL-induced photoreceptor apoptosis (TUNEL staining)” value ([1]; retinylamine 30 μM or apocynin 300 μM together with 30 μM atRAL, listed as Ret-NH2) was “protected the ONL and INL” and the “effect on atRAL-induced cell death rate (LDH assay)” value [2] was “reduced”. The “visibility of retinosomes in RPE” value [3] was “more clearly visible” and the “content of fluorescent retinyl esters in the eye” value [4] was “increases”.
